The test system of the series is CCRIS mutagenicity, Ames/micronucleus/aberration tests. As to the kind of experiment: CCRIS mutagenicity studies. The settings on record: Test System: AMES SALMONELLA TYPHIMURIUM
[1] abbreviates: Strain/Indicator: TA98, Metabolic Activation: NONE, Method: PREINCUBATION
The mark [2] stands for this setting: Strain/Indicator: TA100, Metabolic Activation: NONE, Method: PREINCUBATION
The mark [3] stands for this setting: Strain/Indicator: TA1535, Metabolic Activation: NONE, Method: PREINCUBATION
Where [4] appears, read: Strain/Indicator: TA1537, Metabolic Activation: NONE, Method: PREINCUBATION

The source made the active and inactive calls. The rule behind the calls is not given here.

As for `CCOP(=S)(OCC)Oc1ccc([N+](=O)[O-])cc1`, the mutagenic call was “inactive; negative” under setting [1]; “inactive; negative” (Strain/Indicator: TA98, Metabolic Activation: RAT, LIVER, S-9, KANECHLOR 500, Method: PREINCUBATION); “active; positive” under setting [2]; “inactive; negative” (Strain/Indicator: TA100, Metabolic Activation: NONE, Method: STANDARD PLATE); “active; positive” (Strain/Indicator: TA100, Metabolic Activation: RAT, LIVER, S-9, KANECHLOR 500, Method: PREINCUBATION); “active; positive” (Strain/Indicator: TA100, Metabolic Activation: S-9, Method: STANDARD PLATE).
In the case of `Brc1c(Br)c(Br)c(Br)c(Br)c1Br`, the mutagenic call is, setting by setting: (Strain/Indicator: TA98, Metabolic Activation: HAMSTER, LIVER, S-9, AROCLOR 1254, Method: PREINCUBATION) “inactive; negative”; under setting [1], “inactive; negative”; (Strain/Indicator: TA98, Metabolic Activation: RAT, LIVER, S-9, AROCLOR 1254, Method: PREINCUBATION) “inactive; negative”; (Strain/Indicator: TA100, Metabolic Activation: HAMSTER, LIVER, S-9, AROCLOR 1254, Method: PREINCUBATION) “inactive; negative”; under setting [2], “inactive; negative”; (Strain/Indicator: TA100, Metabolic Activation: RAT, LIVER, S-9, AROCLOR 1254, Method: PREINCUBATION) “inactive; negative”. The mutagenic call (Strain/Indicator: TA1535, Metabolic Activation: HAMSTER, LIVER, S-9, AROCLOR 1254, Method: PREINCUBATION) was “inactive; negative”; the mutagenic call under setting [3] is “inactive; negative”; the mutagenic call (Strain/Indicator: TA1535, Metabolic Activation: RAT, LIVER, S-9, AROCLOR 1254, Method: PREINCUBATION) is “inactive; negative”; the mutagenic call (Strain/Indicator: TA1537, Metabolic Activation: HAMSTER, LIVER, S-9, AROCLOR 1254, Method: PREINCUBATION) is “inactive; negative”; the mutagenic call under setting [4] was “inactive; negative”; the mutagenic call (Strain/Indicator: TA1537, Metabolic Activation: RAT, LIVER, S-9, AROCLOR 1254, Method: PREINCUBATION) is “inactive; negative”.
With `CCN(CC)c1ccc(N=O)c(O)c1`, the mutagenic call was “inactive; negative” (Strain/Indicator: TA97, Metabolic Activation: HAMSTER, LIVER, S-9, AROCLOR 1254 (10%), Method: PREINCUBATION); “inactive; negative” (Strain/Indicator: TA97, Metabolic Activation: HAMSTER, LIVER, S-9, AROCLOR 1254 (30%), Method: PREINCUBATION); “inactive; negative” (Strain/Indicator: TA97, Metabolic Activation: NONE, Method: PREINCUBATION); “inactive; negative” (Strain/Indicator: TA97, Metabolic Activation: RAT, LIVER, S-9, AROCLOR 1254 (10%), Method: PREINCUBATION); “inactive; negative” (Strain/Indicator: TA97, Metabolic Activation: RAT, LIVER, S-9, AROCLOR 1254 (30%), Method: PREINCUBATION); “inactive; negative” (Strain/Indicator: TA98, Metabolic Activation: HAMSTER, LIVER, S-9, AROCLOR 1254 (5 OR 10%), Method: PREINCUBATION). Besides, the mutagenic call reads like this: (Strain/Indicator: TA98, Metabolic Activation: HAMSTER, LIVER, S-9, AROCLOR 1254 (30%), Method: PREINCUBATION) “inactive; negative”; under setting [1], “inactive; negative”; (Strain/Indicator: TA98, Metabolic Activation: RAT, LIVER, S-9, AROCLOR 1254 (5 OR 10%), Method: PREINCUBATION) “inactive; negative”; (Strain/Indicator: TA98, Metabolic Activation: RAT, LIVER, S-9, AROCLOR 1254 (30%), Method: PREINCUBATION) “inactive; negative”; (Strain/Indicator: TA100, Metabolic Activation: HAMSTER, LIVER, S-9, AROCLOR 1254 (10%), Method: PREINCUBATION) “inactive; negative”; (Strain/Indicator: TA100, Metabolic Activation: HAMSTER, LIVER, S-9, AROCLOR 1254 (30%), Method: PREINCUBATION) “inactive; negative”. Also, the mutagenic call is, setting by setting: under setting [2], “inactive; negative”; (Strain/Indicator: TA100, Metabolic Activation: RAT, LIVER, S-9, AROCLOR 1254 (10%), Method: PREINCUBATION) “inactive; negative”; (Strain/Indicator: TA100, Metabolic Activation: RAT, LIVER, S-9, AROCLOR 1254 (30%), Method: PREINCUBATION) “inactive; negative”; (Strain/Indicator: TA1535, Metabolic Activation: HAMSTER, LIVER, S-9, AROCLOR 1254 (10%), Method: PREINCUBATION) “inactive; negative”; (Strain/Indicator: TA1535, Metabolic Activation: HAMSTER, LIVER, S-9, AROCLOR 1254 (30%), Method: PREINCUBATION) “inactive; negative”; under setting [3], “inactive; negative”. The mutagenic call is “inactive; negative” (Strain/Indicator: TA1535, Metabolic Activation: RAT, LIVER, S-9, AROCLOR 1254 (10%), Method: PREINCUBATION); “inactive; negative” (Strain/Indicator: TA1535, Metabolic Activation: RAT, LIVER, S-9, AROCLOR 1254 (30%), Method: PREINCUBATION); “inactive; negative” (Strain/Indicator: TA1537, Metabolic Activation: HAMSTER, LIVER, S-9, AROCLOR 1254 (30%), Method: PREINCUBATION); “inactive; negative” under setting [4]; “inactive; negative” (Strain/Indicator: TA1537, Metabolic Activation: RAT, LIVER, S-9, AROCLOR 1254 (30%), Method: PREINCUBATION); “inactive; negative” (Strain/Indicator: TA1538, Metabolic Activation: HAMSTER, LIVER, S-9, AROCLOR 1254 (10%), Method: PREINCUBATION). The mutagenic call is, setting by setting: (Strain/Indicator: TA1538, Metabolic Activation: HAMSTER, LIVER, S-9, AROCLOR 1254 (30%), Method: PREINCUBATION) “inactive; negative”; (Strain/Indicator: TA1538, Metabolic Activation: NONE, Method: PREINCUBATION) “inactive; negative”; (Strain/Indicator: TA1538, Metabolic Activation: RAT, LIVER, S-9, AROCLOR 1254 (10 OR 30%), Method: PREINCUBATION) “inactive; negative”.
